Experiments:
Histone deacetylase 1 = Histone deacetylase 1 (Homo sapiens, UniProt Q13547); test: Inhibition of HDAC1 (unknown origin) using Boc-Lys(Ac)-AMC as substrate by fluorescence assay
cells [1] = type: functional; settings: Homo sapiens, HCT-116, 72 h
Description: Growth inhibition of human HCT116 cells after 72 hrs by CellTiter Glo assay

cells [2] = type: functional; settings: Homo sapiens, HL-60, 72 h
Description: Growth inhibition of human HL60 cells after 72 hrs by CellTiter Glo assay

cells [3] = type: functional; settings: Homo sapiens, PC-3, 72 h
Description: Growth inhibition of human PC3 cells after 72 hrs by CellTiter Glo assay

Mus musculus [4] = test: Toxicity in human HCT116 cells xenografted mouse assessed as body weight loss at 50 mg/kg, po qd as intermittent dosing schedule with 3 days on plus 3 days off for 3 weeks relative to vehicle-treated control; type: organism-based, HCT-116; design: dose 50 mg/kg, route oral; settings: in vivo
Mus musculus [5] = test: Toxicity in human HCT116 cells xenografted mouse at 200 mg/kg, po qd measured after 10 days relative to vehicle-treated control; type: organism-based, HCT-116; design: dose 200 mg/kg, route oral; settings: in vivo, 240 h
[6] = Antitumor activity against human HCT116 cells xenografted in mouse assessed as tumor growth reduction at 75 mg/kg, po qd as intermittent dosing schedule with 3 days on plus 3 days off for 3 weeks relative to vehicle-treated control; type: functional; settings: HCT-116, read-out: TGI
hERG (KCNH2) = hERG (KCNH2) (Homo sapiens, UniProt Q12809); test: Inhibition of human ERG at 10 uM
[7] = Antitumor activity against human HCT116 cells xenografted in mouse assessed as tumor growth reduction at 50 mg/kg, po qd for 3 weeks relative to vehicle-treated control; type: functional; settings: HCT-116, 504 h, read-out: TGI
Mus musculus [8] = test: Toxicity in human HCT116 cells xenografted mouse assessed as body weight loss at 50 mg/kg, po qd for 3 weeks relative to vehicle-treated control; type: organism-based, HCT-116; design: dose 50 mg/kg, route oral; settings: in vivo, 504 h
[9] = Antitumor activity against human HCT116 cells xenografted in mouse assessed as tumor growth reduction at 200 mg/kg, po qd measured after 10 days relative to vehicle-treated control; type: functional; settings: HCT-116, 240 h, read-out: TGI
HCT-116 = test: Ratio of vorinostat IC50 to compound IC50 for human HCT116 cells after 72 hrs by CellTiter Glo assay; type: functional

Chain of Histone deacetylase 1 (Q13547 whole entry): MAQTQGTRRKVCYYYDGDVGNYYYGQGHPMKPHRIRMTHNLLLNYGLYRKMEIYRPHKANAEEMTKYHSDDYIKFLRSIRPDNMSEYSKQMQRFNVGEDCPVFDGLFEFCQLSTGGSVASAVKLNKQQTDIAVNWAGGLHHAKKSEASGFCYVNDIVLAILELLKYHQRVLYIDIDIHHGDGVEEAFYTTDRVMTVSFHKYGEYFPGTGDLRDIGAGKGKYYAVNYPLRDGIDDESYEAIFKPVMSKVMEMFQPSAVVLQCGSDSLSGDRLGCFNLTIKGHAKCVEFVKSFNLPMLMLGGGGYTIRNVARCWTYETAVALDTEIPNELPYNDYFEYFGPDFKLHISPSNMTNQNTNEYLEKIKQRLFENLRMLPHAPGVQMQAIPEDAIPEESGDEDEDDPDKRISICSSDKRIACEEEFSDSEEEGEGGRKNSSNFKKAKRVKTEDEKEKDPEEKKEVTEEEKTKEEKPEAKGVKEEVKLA
Chain of hERG (KCNH2) (Q12809 whole entry): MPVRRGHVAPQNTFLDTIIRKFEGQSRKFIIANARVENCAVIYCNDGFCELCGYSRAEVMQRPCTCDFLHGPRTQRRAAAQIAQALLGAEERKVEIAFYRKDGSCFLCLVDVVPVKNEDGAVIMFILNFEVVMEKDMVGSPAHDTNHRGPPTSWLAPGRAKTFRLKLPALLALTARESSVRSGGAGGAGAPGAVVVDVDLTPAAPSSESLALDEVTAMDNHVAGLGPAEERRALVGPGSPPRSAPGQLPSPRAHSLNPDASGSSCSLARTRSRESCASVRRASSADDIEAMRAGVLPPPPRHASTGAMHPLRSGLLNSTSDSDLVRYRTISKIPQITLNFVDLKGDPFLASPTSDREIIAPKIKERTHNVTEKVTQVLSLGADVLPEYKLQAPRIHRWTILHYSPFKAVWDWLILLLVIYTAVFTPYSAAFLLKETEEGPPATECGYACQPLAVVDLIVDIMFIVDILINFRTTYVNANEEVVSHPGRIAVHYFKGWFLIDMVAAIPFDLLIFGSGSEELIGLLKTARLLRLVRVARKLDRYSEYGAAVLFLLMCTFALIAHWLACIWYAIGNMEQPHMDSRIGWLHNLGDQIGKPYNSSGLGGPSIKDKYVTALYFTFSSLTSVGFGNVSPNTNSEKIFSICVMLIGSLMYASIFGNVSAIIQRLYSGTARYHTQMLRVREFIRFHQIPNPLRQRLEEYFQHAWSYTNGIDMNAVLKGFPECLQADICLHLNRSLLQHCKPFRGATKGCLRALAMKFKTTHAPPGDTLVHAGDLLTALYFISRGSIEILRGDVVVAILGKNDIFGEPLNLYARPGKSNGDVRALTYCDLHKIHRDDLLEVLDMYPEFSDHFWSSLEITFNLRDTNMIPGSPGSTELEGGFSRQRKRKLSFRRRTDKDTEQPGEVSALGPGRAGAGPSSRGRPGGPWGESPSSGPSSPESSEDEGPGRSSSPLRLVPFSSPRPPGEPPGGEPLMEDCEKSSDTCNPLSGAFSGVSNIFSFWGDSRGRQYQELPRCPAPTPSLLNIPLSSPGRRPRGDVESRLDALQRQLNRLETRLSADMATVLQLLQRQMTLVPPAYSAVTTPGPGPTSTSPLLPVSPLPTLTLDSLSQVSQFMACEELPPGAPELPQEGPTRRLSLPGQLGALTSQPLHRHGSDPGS

Row | Structure (SMILES) | IC50 (Histone deacetylase 1) [nM] | GI50 (cells [1]) [nM] | further results
1 | O=C(NO)c1ccc(N2CCN(Cc3ccc(C(F)(F)F)cc3)C2=O)cc1 | 80 |  | 
2 | O=C(NO)c1ccc(N2CCN(CCCN3CCCC3)C2=O)cc1 | 114 |  | 
3 | O=C(NO)c1ccc(N2CCN(Cc3ccccc3)C2=O)cc1 | 17 | 850 | 
4 | O=C(NO)c1ccc(N2CCN(Cc3ccncc3)C2=O)cc1 | 41 |  | 
5 | CN(C)Cc1ccc(CN2CCN(c3ccc(C(=O)NO)cc3)C2=O)cc1 | 25 |  | 
6 | O=C(NO)c1ccc(N2CCN(Cc3cccnc3)C2=O)cc1 | 42 |  | 
7 | O=C(NO)c1ccc(N2CCN(CCCN3CCOCC3)C2=O)cc1 | 125 |  | 
8 | O=C(NO)c1ccc(N2CCN(CCc3ccccc3)C2=O)cc1 | 13 | 650 | 
9 | O=C(NO)c1ccc(N2CCN(Cc3cccc4ncccc34)C2=O)cc1 | 5.4 | 270 | GI50 (cells [2]): 250 nM; GI50 (cells [3]): 340 nM
10 | CC(C)CN1CCN(c2ccc(C(=O)NO)cc2)C1=O | 250 |  | 
11 | COc1ccc(CN2CCN(c3ccc(C(=O)NO)cc3)C2=O)cc1 | 12 | 470 | 

Now from value to compound, other results behind:

Row | IC50 (Histone deacetylase 1) [nM] | Structure (SMILES) | GI50 (cells [1]) [nM] | further results
12 | 182 | O=C(NO)c1ccc(N2CCN(c3cccnc3)C2=O)cc1 |  | 
13 | 9.5 | CN(C)c1cccc(CN2CCN(c3ccc(C(=O)NO)cc3)C2=O)c1 | 330 | GI50 (cells [2]): 440 nM; GI50 (cells [3]): 430 nM
14 | 21 | O=C(NO)c1ccc(N2CCN(Cc3ccc(F)cc3)C2=O)cc1 |  | 
15 | 23 | CN(C)Cc1cccc(CN2CCN(c3ccc(C(=O)NO)cc3)C2=O)c1 |  | 
16 | 5.4 | O=C(NO)c1ccc(N2CCN(Cc3ccc4ccccc4c3)C2=O)cc1 | 210 | GI50 (cells [2]): 360 nM; GI50 (cells [3]): 380 nM
17 | 9.5 | O=C(NO)c1ccc(N2CCN(Cc3cccc4ccccc34)C2=O)cc1 |  | 
18 | 2.7 | CCN(CC)Cc1ccc2cc(CN3CCN(c4ccc(C(=O)NO)cc4)C3=O)ccc2c1 | 110 | Activity (Mus musculus [4]): < 15%; GI50 (cells [2]): 86 nM; Activity (Mus musculus [5]): Toxic; inhibition in vivo at 75 mg/kg [6]: 54%; GI50 (cells [3]): 100 nM; inhibition at 10 µM (hERG (KCNH2)): 27%; inhibition in vivo at 50 mg/kg [7]: 45%; Activity (Mus musculus [8]): < 15%; inhibition in vivo at 200 mg/kg [9]: 50%; Ratio IC50 (HCT-116): 6
19 | 4 | Cn1cc(CCN2CCN(c3ccc(C(=O)NO)cc3)C2=O)c2ccccc21 | 240 | GI50 (cells [2]): 480 nM; GI50 (cells [3]): 210 nM
20 | 152 | O=C(NO)c1ccc(N2CCN(c3cnc4ccccc4c3)C2=O)cc1 |  | 

From ChEMBL document CHEMBL3351615, “Design, synthesis and evaluation of novel HDAC inhibitors as potential antitumor agents” (Bioorg Med Chem Lett, 2014)
